Assay results reported in patent US11701369B2, “Polymeric bile acid derivatives inhibit Hepatitis B and D virus and NTCP transport” (Huahui Health Ltd., priority 2014, dated 2023).
“Also recorded” adds a separate entry of the source. Read-outs that look alike come from different tables or passages of the source.

Experiments:
HBV [1] = assay: HBV infection assay on HepG2-NTCP cells (secreted HBeAg by ELISA); type: cell-based, Hepatitis B virus; conditions: for inhibition of HBV infection (in words): secreted HBeAg
Description: (§1) HBV and HDV infection assay. HepG2NTCP Cells were cultured in PMM for 12-24 hrs before infection, and then inoculated with 200 multiplicities of genome equivalents (mge) of HBV, or 500 mge of HDV in the presence of 5% PEG8000 in PMM at 37° C. for about 24 hrs. Chemicals to be tested were added to the cells as indicated in the specific assays. The inoculum was replenished by PMM post infection. The infections were detected at day 5 post infection (dpi).
ELISA assay for the detection of HBeAg and HBsAg. ELISA kits for HBeAg and HBsAg detection were from Wantai Pharm Inc. (Beijing, China). Supernatant from infected HepG2NTCP cells was collected on 2-5 days post infection. The secreted HBeAg and HBsAg in the culture medium was measured with a commercial kit from Wantai Pharm Inc (Beijing, China) by following the manufactory's instructions.

HBV [2] = assay: In vitro stability: incubation with HBV inocula before infection, HBeAg ELISA; type: cell-based, Hepatitis B virus; conditions: incubated with HBV inocula for different times before infection, HBeAg at 5 dpi
Description: FIG. 10 The influence of the linkage groups on the in vitro stability of PBADs. TUDCA, NQL018, NQL044, and NQL055 were incubated with HBV inocula of different times before viral infection, and present in the inocula during infection period. The level of secreted HBeAg was detected by ELISA at 5 dpi.
The in vitro stability of PBADs could PBADs could be enhanced by optimization of the linkage bond. We conducted stability analysis of several PBADs with similar structure but of different linkage. […] This indicates the in vitro and in vivo stability is to a large extent determined by the feature of the linkage groups.

NTCP [3] = biological target: T1, NTCP (Homo sapiens, UniProt Q14973); assay: [3H] taurocholate uptake assay on HepG2-NTCP cells; type: cell-based; conditions: for inhibition of NTCP substrate uptake (in words): co-incubation assay, [3H] taurocholate, 10 min; for IC50: pretreatment assay, HepG2-NTCP cells pretreated 2 hrs before uptake assay, read-out: IC50 for inhibiting NTCP-mediated [3H] taurocholate uptake
T1 construct: expressed in transfected cells
T1 sequence (Q14973 1-349): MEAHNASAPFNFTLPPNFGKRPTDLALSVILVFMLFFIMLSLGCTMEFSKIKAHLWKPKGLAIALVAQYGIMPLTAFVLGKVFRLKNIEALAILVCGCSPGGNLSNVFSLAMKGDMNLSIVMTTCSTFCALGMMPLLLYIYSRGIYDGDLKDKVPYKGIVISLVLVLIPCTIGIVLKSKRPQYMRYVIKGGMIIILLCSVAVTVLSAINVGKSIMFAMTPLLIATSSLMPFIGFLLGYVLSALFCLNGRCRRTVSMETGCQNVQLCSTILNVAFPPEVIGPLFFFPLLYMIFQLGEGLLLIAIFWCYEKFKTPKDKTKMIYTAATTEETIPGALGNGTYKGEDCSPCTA
Description: [3H] substrate uptake assay. [3H]taurocholate uptake assay was conducted following a protocol as previously described(60). In general, HepG2-NTCP cells were cultured in PMM for 12-24 hrs, then were treated with or without indicated chemicals before uptake assay. For substrate uptake assay, cells were generally incubated with 0.5 μl (0.5 μCi) [3H]-taurocholate dissolved in Na+ Ringer's solutions for 10 mins at 37° C. with or without the presence of chemicals. Subsequently, cells were washed once by PBS and lysed by 100 μl of 1% TritonX-100 in H2O for 5 mins at room temperature. The lysate was transferred into liquid scintillation tube and mixed with 900 μl liquid scintillation cocktail (Ultima GOLD™ XR) (Perkin Elmer, USA). Liquid scintillation counting was performed on a Perkin Elmer 1450 LSC Liquid Scintillation Counter and Luminescence Counter.

HBV [4] = assay: HBV infection assay on HepaRG cells (HBsAg and HBeAg ELISA); type: cell-based, Hepatitis B virus; conditions: HBsAg and HBeAg at 5 dpi
Description: FIG. 11 HepaRG cells were infected with HBV in the presence of indicated PBADs. The level of secreted HBsAg and HBeAg was detected by ELISA at 5 dpi.
The antiviral potency of PBADs is also repeatable on other HBV infection system (HepaRG) with similar inhibition profile. […] HBV infection was conducted in the presence of NQL028, NQL018, NQL029, NQL019 and NQL021, all of which were bis-ester based PBADs with different linkage length.

HepG2-NTCP cells = assay: In vitro cytotoxicity on HepG2-NTCP cell line; type: cell-based
Description: FIG. 6 Toxicity of 3UT(NQL-012), DiU(NQL-009) and 3TPT(NQL-018) in cell cultures. HepG2-NTCP cells were incubated with 3UT(NQL-012), DiU(NQL-009) or 3TPT(NQL-018) at indicated concentrations for 48 hrs, cell viability was evaluated and images were captured at 5 dpi.
In vitro cytotoxicity of PBADs. We also conducted experiments to determine the LD50 on HepG2-NTCP cell line of the three PBADs (3-UT (NQL-012), DIU (NQL-009), 3TPT (NQL-018)). We treated cells by different concentrations of PBADs for 48 hrs and captured the images of cells after they were further cultured for 3 days in PMM. […] No detectable cytotoxicity was observed upon treatment of DIU(NQL-009) and 3TPT(NQL-018) up to 200 μM, which is 2000-4000 folds higher than its inhibitory concentration for HBV infection.

HDV = HDV infection assay on HepG2-NTCP cells (intracellular delta antigen staining); type: cell-based, Hepatitis D virus
Description: as §1
Immunostaining assay. For HBV infection, infected cells were washed twice with PBS and fixed in 3.7% paraformaldehyde (PFA) at room temperature for 10 mins. Subsequently, cells were permeabilized with 0.5% Trition X-100/PBS for 10 mins at room temperature, blocked with 3% BSA at 37° C. for 1 hour, and followed by incubating with 5 μg/ml mouse mAb1C10 which recognizes HBcAg, and followed by staining with FITC-conjugated secondary antibody. Nucleus was stained with DAPI in blue. The stained cells were imaged with the fluorescence microscope (Nikon). For HDV infection, on 5 dpi, HDV infected cells were fixed with 100% methanol at room temperature for 10 mins, intracellular delta antigens were then stained with 5 μg/ml of FITC conjugated 4G5 and nucleus were stained with DAPI in blue. Images were collected by an Eclipse Ti Fluorescence Microscope (Nikon) and a representative picture is shown.

NTCP [5] = biological target: T1, NTCP; assay: FITC-preS1 peptide binding assay
Description: FITC-preS1 peptide binding assay. NTCP expressing cells were cultured in PTH maintenance medium (PMM) for 24 hrs before conducting this assay. For Immunofluorescence microscopy, cells were incubated with 400 nM FITC-pre-S1 peptide diluted in WME or PMM at 37° C. for about 2-3 hrs. Subsequently, cells were washed once by WME, and then directly visualized with a Fluorescence Microscope.

[6] = Hepatitis B virus, read-out: IC50 for inhibiting HBV infection, HepG2-NTCP cells, PBAD present during infection, HBeAg in medium at 5 dpi

| Compound | inhibition of HBV infection (in words) (HBV [1]; HepG2-NTCP cells) | IC50 (HBV [1]; [6]) [nM] | IC50 (HBV [1]; read-out: IC50 for inhibiting HBV infection, HepG2-NTCP cells, PBAD present during infection, HBeAg in medium at 5 dpi) [nM] | in vitro stability (antiviral potency after long incubation with the inoculum) (HBV [2]) | inhibition of NTCP substrate uptake (in words) (NTCP [3]) | IC50 (NTCP [3]) [nM] | inhibition of HBV infection on HepaRG cells (in words) (HBV [4]) | concentration up to which no detectable cytotoxicity was observed (HepG2-NTCP cells; human, 48 h) [µM] | inhibition of HDV infection (in words) (HDV) | blocking of FITC-preS1 binding to NTCP (in words) (NTCP [5]; HepG2-NTCP cells, pretreatment versus co-incubation, 3 hrs) | LD50 (HepG2-NTCP cells; HepG2-NTCP, 48 hrs treatment, then 3 days culture in PMM) [µM] | effect on FITC-preS1 peptide at high concentration (NTCP [5]; high concentration of compound) |
| --- | --- | --- | --- | --- | --- | --- | --- | --- | --- | --- | --- | --- |
| C[C@H](CCC(=O)NCCS(=O)(=O)O)[C@H]1CC[C@H]2[C@@H]3[C@@H](O)CC4C[C@H](OC(=O)CCCC(=O)O[C@@H]5CC[C@@]6(C)C(C5)C[C@H](O)[C@H]5[C@@H]7CC[C@H]([C@H](C)CCC(=O)NCCS(=O)(=O)O)[C@@]7(C)CC[C@@H]56)CC[C@]4(C)[C@H]3CC[C@]12C (stereo in doubt) [NQL-018] | high antiviral activity; also recorded: greatly improved potency | 51 | 51 | not stable upon long time incubation with the inoculum; also recorded: decreased activity after long time incubation | significantly higher efficiency than that of TUDCA | 58.7 | inhibited HBV infection | 200 | high antiviral activity; also recorded: greatly improved potency | effect of pretreatment of 3TPT(NQL-018) was not as strong as that of co-incubation |  |  |
| C[C@H](CCC(=O)O[C@H]1CC[C@@]2(C)C(C1)C[C@H](O)C1[C@H]3CC[C@H]([C@H](C)CCC(=O)NCCS(=O)(=O)O)[C@@]3(C)CC[C@H]12)[C@H]1CC[C@@H]2C3[C@@H](CC[C@@]21C)[C@@]1(C)CC[C@H](O)CC1C[C@@H]3O (stereo partly shown) [NQL-012] | high antiviral activity; also recorded: greatly improved potency | 100 |  |  | significantly higher efficiency than that of TUDCA | 109 |  |  | high antiviral activity; also recorded: greatly improved potency |  | ~25 |  |
| C[C@H](CCC(=O)O[C@H]1CC[C@@]2(C)C(C1)C[C@H](O)C1[C@H]3CC[C@H]([C@H](C)CCC(=O)O[C@H]4CC[C@@]5(C)C(C4)C[C@H](O)C4[C@H]6CC[C@H]([C@H](C)CCC(=O)NCCS(=O)(=O)O)[C@@]6(C)CC[C@H]45)[C@@]3(C)CC[C@H]12)[C@H]1CC[C@@H]2C3[C@@H](CC[C@@]21C)[C@@]1(C)CC[C@H](O)CC1C[C@@H]3O (stereo partly shown) [NQL-016] | not as high as the dimeric counterparts |  |  |  |  |  |  |  | not as high as the dimeric counterparts |  |  | aggregation of FITC-preS1 peptide |
